What was measured:
HoblOBP3 = HoblOBP3 (Holotrichia oblita, UniProt G9BWQ7); assay: Binding curve of 1-NPN and Scatchard plot, HoblOBP3; settings: HoblOBP3 2 µM in Tris-buffer, 1-NPN 2–20 µM; read-out: Dissociation constant of 1-NPN
Protocol: (§1) N-phenyl-1-naphthylamine (1-NPN) was selected as a probe to measure the affinity of the 1-NPN fluorescent ligand to proteins. A 1-cm light path quartz cuvette was used, and the fluorescence spectra were recorded on a Lengguang 970 CRT spectrofluorimeter (Shanghai Jingmi, China) at room temperature in a right angle configuration. The parameter selection was such that the slit widths for both excitation and emission were 10 nm. 1-NPN was excited at 337 nm and the emission spectra were recorded between 350 and 550 nm. Spectra were recorded using high-speed scanning. Several types of compounds purchased from Sigma-Aldrich (Chemie Gmbh, Steinheim, Germany) were identified in the binding assays, and their purities were > 97% (Table 1). […]
(§2) To determine the dissociation constants, the intensity values corresponding to the maximum fluorescence emission were plotted against free ligand concentrations. Assuming that the protein was 100% active and that the stoichiometric ratio between the protein and ligand was 1:1 at saturation, the bound ligand was determined from the fluorescence intensity values. […] The dissociation constants of the competitors (Ki) were calculated from the corresponding IC50 values using the following equation: Ki = [IC50]/1+[1-NPN]/K1-NPN. […]

HoblOBP4 = HoblOBP4 (Holotrichia oblita, UniProt G9BWQ8); assay: Binding curve of 1-NPN and Scatchard plot, HoblOBP4; settings: HoblOBP4 2 µM in Tris-buffer, 1-NPN 2–20 µM; read-out: Dissociation constant of 1-NPN
Sequence of HoblOBP4 (G9BWQ8 entry or part of it): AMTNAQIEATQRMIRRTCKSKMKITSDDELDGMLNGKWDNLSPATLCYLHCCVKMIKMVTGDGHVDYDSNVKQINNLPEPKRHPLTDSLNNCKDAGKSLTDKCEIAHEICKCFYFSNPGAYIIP
Protocol: as §1, §2

Sequence of HoblOBP3 (G9BWQ7 entry or part of it): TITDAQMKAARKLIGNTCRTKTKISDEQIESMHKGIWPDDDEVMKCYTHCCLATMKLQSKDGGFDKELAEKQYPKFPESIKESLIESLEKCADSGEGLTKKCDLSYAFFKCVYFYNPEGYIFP

c1ccc(Nc2cccc3ccccc23)cc1 [1-NPN, N-phenyl-1-naphthylamine]
Kd (HoblOBP3): 1880 nM | Kd (HoblOBP4): 2780 nM

Source: publication PMC3871601, “Potential Cooperations between Odorant-Binding Proteins of the Scarab Beetle Holotrichia oblita Faldermann (Coleoptera: Scarabaeidae)” (PLoS ONE, 2013)
